Inconclusive results and toxic doses are left out.
Tested on: L1210 leukemia ip in BDF1 mice, survival T/C
Assay: NCI In Vivo Anticancer Drug Screen. Data for tumor model L1210 Leukemia (intraperitoneal) in B6D2F1 (BDF1) mice
Conditions: endpoint: mean survival time, higher = longer survival
Outline: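 Antitumor effect is assessed in tumor-bearing animals. Survival in the compound arm is compared with a vehicle-dosed control arm and expressed as their quotient.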

[1] = dose: 100.0 mg/kg/injection, schedule: Q04DX003 (ip), vehicle: saline with Tween-80
[2] = dose: 200.0 mg/kg/injection, schedule: Q04DX003 (ip), vehicle: saline with Tween-80
[3] = dose: 100.0 mg/kg/injection, schedule: Q01DX001 (ip), vehicle: saline

Cn1[nH]nnc1=S
T/C [1]: 97 % of control | T/C [2]: 112 % of control

COC(=O)CC1(O)C=CC(=O)C=C1
T/C (dose: 6.25 mg/kg/injection, schedule: Q01DX009 (ip), vehicle: Klucel (hydroxypropylcellulose) (HPC)): 95 % of control | T/C (dose: 12.5 mg/kg/injection, schedule: Q01DX009 (ip), vehicle: Klucel (hydroxypropylcellulose) (HPC)): 92 % of control | T/C (dose: 25.0 mg/kg/injection, schedule: Q01DX009 (ip), vehicle: Klucel (hydroxypropylcellulose) (HPC)): 108 % of control | T/C (dose: 25.0 mg/kg/injection, schedule: Q01DX009 (ip), vehicle: saline): 100 % of control

O=C(Nc1cccc(C2=NCCN2)c1)c1ccc(OCCCOc2ccc(C(=O)Nc3cccc(C4=NCCN4)c3)cc2)cc1
T/C (dose: 9.0 mg/kg/injection, schedule: Q01DX Z (ip), vehicle: saline): 113 % of control | T/C (dose: 12.0 mg/kg/injection, schedule: Q01DX Z (ip), vehicle: water): 107 % of control | T/C (dose: 13.0 mg/kg/injection, schedule: Q01DX Z (ip), vehicle: saline): 107 % of control | T/C (dose: 20.0 mg/kg/injection, schedule: Q01DX Z (ip), vehicle: saline): 112 % of control | T/C (dose: 25.0 mg/kg/injection, schedule: Q01DX Z (ip), vehicle: water): 111 % of control

CCN(CC)CCOC(=O)c1cccc2[nH]ccc12
T/C (dose: 100.0 mg/kg/injection, schedule: Q04DX003 (ip), vehicle: saline): 104 % of control | T/C (dose: 200.0 mg/kg/injection, schedule: Q04DX003 (ip), vehicle: saline): 109 % of control

Nc1nc2c([nH]c(=O)n2C2OC(CO)C(O)C2O)c(=O)n1N (configuration not stated)
T/C [3]: 102 % of control | T/C (dose: 200.0 mg/kg/injection, schedule: Q01DX001 (ip), vehicle: saline): 101 % of control | T/C (dose: 400.0 mg/kg/injection, schedule: Q01DX001 (ip), vehicle: saline): 96 % of control

COC(=O)C1(C(=O)OC)CCC=CC1=O
T/C (dose: 100.0 mg/kg/injection, schedule: Q01DX009 (ip), vehicle: saline with Tween-80): 107 % of control | T/C [1]: 97 % of control | T/C (dose: 200.0 mg/kg/injection, schedule: Q01DX009 (ip), vehicle: saline with Tween-80): 93 % of control | T/C [2]: 101 % of control | T/C (dose: 400.0 mg/kg/injection, schedule: Q01DX009 (ip), vehicle: saline with Tween-80): 109 % of control | T/C (dose: 400.0 mg/kg/injection, schedule: Q04DX003 (ip), vehicle: saline with Tween-80): 106 % of control

NC(CSC(c1ccccc1)(c1ccccc1)c1ccc(Cl)cc1)C(=O)O (configuration not stated)
T/C (dose: 1.3 mg/kg/injection, schedule: Q01DX009 (ip), vehicle: saline): 100 % of control | T/C (dose: 2.0 mg/kg/injection, schedule: Q01DX009 (ip), vehicle: saline): 118 % of control | T/C (dose: 6.25 mg/kg/injection, schedule: Q01DX009 (ip), vehicle: acetone): 151 % of control | T/C (dose: 12.5 mg/kg/injection, schedule: Q01DX009 (ip), vehicle: acetone): 156 % of control | T/C (dose: 12.5 mg/kg/injection, schedule: Q01DX009 (ip), vehicle: other): 163 % of control

O=P(OCc1ccccc1)(N(CCCl)CCCl)N1CCN(Cc2ccccc2)CC1 (configuration not stated)
T/C (dose: 10.0 mg/kg/injection, schedule: Q01DX Z (ip), vehicle: saline): 93 % of control | T/C (dose: 30.0 mg/kg/injection, schedule: Q01DX Z (ip), vehicle: saline): 90 % of control | T/C (dose: 100.0 mg/kg/injection, schedule: Q01DX Z (ip), vehicle: saline): 95 % of control

CC[CH2][Pb]([CH2]CC)([CH2]CC)[O]C(C)=O
T/C (dose: 6.25 mg/kg/injection, schedule: Q04DX003 (ip), vehicle: Klucel (hydroxypropylcellulose) (HPC)): 100 % of control | T/C (dose: 12.5 mg/kg/injection, schedule: Q04DX003 (ip), vehicle: Klucel (hydroxypropylcellulose) (HPC)): 103 % of control | T/C (dose: 50.0 mg/kg/injection, schedule: Q01DX001 (ip), vehicle: saline): 94 % of control | T/C [3]: 94 % of control

CCCc1ccc(OC/C=C(\C)CCC2OC2(C)CC)cc1 (configuration not stated)
T/C (dose: 100.0 mg/kg/injection, schedule: Q04DX002 (ip), vehicle: saline with Tween-80): 92 % of control | T/C (dose: 200.0 mg/kg/injection, schedule: Q04DX002 (ip), vehicle: saline with Tween-80): 99 % of control | T/C (dose: 400.0 mg/kg/injection, schedule: Q04DX002 (ip), vehicle: saline with Tween-80): 92 % of control

C(=NCC(CCN1CCOCC1)(CCN1CCOCC1)c1cccc2ccccc12)C(CCN1CCOCC1)(CCN1CCOCC1)c1cccc2ccccc12
T/C (dose: 25.0 mg/kg/injection, schedule: Q04DX003 (ip), vehicle: saline with Tween-80): 90 % of control | T/C (dose: 50.0 mg/kg/injection, schedule: Q04DX003 (ip), vehicle: saline with Tween-80): 100 % of control | T/C [1]: 89 % of control

Nc1ccc(NC(=O)C(=O)O)cc1
T/C [1]: 97 % of control | T/C [2]: 88 % of control
